Species: Rattus norvegicus
Assay: DrugMatrix - Regimen: Daily Repeat
Format: toxicity, organism-based, Sprague-Dawley
Design: regimen Daily Repeat, gender Male, age 6-8 weeks
Details: in vivo, po, route oral GAVAGE, vehicle .5 % CMC; for BASOPHIL / EOSINOPHIL / ERYTHROCYTE COUNT / HEMATOCRIT / HEMOGLOBIN / LEUKOCYTE COUNT / LYMPHOCYTE / MEAN CORPUSCULAR HEMOGLOBIN / MEAN CORPUSCULAR HEMOGLOBIN CONCENTRATION / MEAN CORPUSCULAR VOLUME / MONOCYTE / NEUTROPHIL / PLATELET COUNT: tissue Blood; for ALANINE AMINOTRANSFERASE / ALBUMIN / ALKALINE PHOSPHATASE / ASPARTATE AMINOTRANSFERASE / BLOOD UREA NITROGEN / CHLORIDE / CHOLESTEROL / CREATINE PHOSPHOKINASE / CREATININE / GLUCOSE / PHOSPHORUS / POTASSIUM / SODIUM / TOTAL PROTEIN: tissue Plasma
[1] = 0 mg/kg, 72 h, dose level Control, time 3 day
[2] = 0 mg/kg, 120 h, dose level Control, time 5 day
[3] = 1 mg/kg, 72 h, dose level Low, time 3 day
[4] = 1 mg/kg, 120 h, dose level Low, time 5 day
[5] = 14 mg/kg, 72 h, dose level High, time 3 day
[6] = 14 mg/kg, 120 h, dose level High, time 5 day

CN1C(C(=O)Nc2ccccn2)=C(O)c2ccccc2S1(=O)=O [PIROXICAM]
BASOPHIL [1]: 0%
EOSINOPHIL [1]: 0.33%
ERYTHROCYTE COUNT [1]: 6.03 x10E6/uL
HEMATOCRIT [1]: 38.8%
HEMOGLOBIN [1]: 14.26 G/DL
LEUKOCYTE COUNT [1]: 10.64 x10E3/uL
LYMPHOCYTE [1]: 83.33%
MEAN CORPUSCULAR HEMOGLOBIN [1]: 23.64 pg
MEAN CORPUSCULAR HEMOGLOBIN CONCENTRATION [1]: 36.74 G/DL
MEAN CORPUSCULAR VOLUME [1]: 64.32 fL
MONOCYTE [1]: 3.33%
NEUTROPHIL [1]: 13%
PLATELET COUNT [1]: 1264.4 x10E3/uL
ALANINE AMINOTRANSFERASE [1]: 38.83 u/L
ALBUMIN [1]: 3.55 G/DL
ALKALINE PHOSPHATASE [1]: 368.33 u/L
ASPARTATE AMINOTRANSFERASE [1]: 66.17 u/L
BLOOD UREA NITROGEN [1]: 15.67 mg/dL
CHLORIDE [1]: 104.33 MEQ/L
CHOLESTEROL [1]: 76.5 mg/dL
CREATINE PHOSPHOKINASE [1]: 166.83 u/L
CREATININE [1]: 0.52 mg/dL
GLUCOSE [1]: 173.17 mg/dL
PHOSPHORUS [1]: 11.68 mg/dL
POTASSIUM [1]: 6.43 MEQ/L
SODIUM [1]: 149.5 MEQ/L
TOTAL PROTEIN [1]: 5.93 G/DL
BASOPHIL [2]: 0%
EOSINOPHIL [2]: 0%
ERYTHROCYTE COUNT [2]: 5.88 x10E6/uL
HEMATOCRIT [2]: 37.87%
HEMOGLOBIN [2]: 14.48 G/DL
LEUKOCYTE COUNT [2]: 12.43 x10E3/uL
LYMPHOCYTE [2]: 84.17%
MEAN CORPUSCULAR HEMOGLOBIN [2]: 24.65 pg
MEAN CORPUSCULAR HEMOGLOBIN CONCENTRATION [2]: 38.25 G/DL
MEAN CORPUSCULAR VOLUME [2]: 64.47 fL
MONOCYTE [2]: 4.33%
NEUTROPHIL [2]: 11.5%
PLATELET COUNT [2]: 1182.33 x10E3/uL
ALANINE AMINOTRANSFERASE [2]: 38.67 u/L
ALBUMIN [2]: 3.55 G/DL
ALKALINE PHOSPHATASE [2]: 342.5 u/L
ASPARTATE AMINOTRANSFERASE [2]: 63.33 u/L
BLOOD UREA NITROGEN [2]: 15.5 mg/dL
CHLORIDE [2]: 104 MEQ/L
CHOLESTEROL [2]: 75.5 mg/dL
CREATINE PHOSPHOKINASE [2]: 142.5 u/L
CREATININE [2]: 0.62 mg/dL
GLUCOSE [2]: 165.17 mg/dL
PHOSPHORUS [2]: 10.87 mg/dL
POTASSIUM [2]: 6.85 MEQ/L
SODIUM [2]: 150.17 MEQ/L
TOTAL PROTEIN [2]: 5.93 G/DL
BASOPHIL [3]: 0%
EOSINOPHIL [3]: 0%
ERYTHROCYTE COUNT [3]: 6.55 x10E6/uL
HEMATOCRIT [3]: 42.8%
HEMOGLOBIN [3]: 15.95 G/DL
LEUKOCYTE COUNT [3]: 11.1 x10E3/uL
LYMPHOCYTE [3]: 85.5%
MEAN CORPUSCULAR HEMOGLOBIN [3]: 24.3 pg
MEAN CORPUSCULAR HEMOGLOBIN CONCENTRATION [3]: 37.3 G/DL
MEAN CORPUSCULAR VOLUME [3]: 65.25 fL
MONOCYTE [3]: 3.5%
NEUTROPHIL [3]: 11%
PLATELET COUNT [3]: 1530 x10E3/uL
ALANINE AMINOTRANSFERASE [3]: 31.5 u/L
ALBUMIN [3]: 3.75 G/DL
ALKALINE PHOSPHATASE [3]: 379 u/L
ASPARTATE AMINOTRANSFERASE [3]: 59 u/L
BLOOD UREA NITROGEN [3]: 16.5 mg/dL
CHLORIDE [3]: 102.5 MEQ/L
CHOLESTEROL [3]: 77.5 mg/dL
CREATINE PHOSPHOKINASE [3]: 142.5 u/L
CREATININE [3]: 0.4 mg/dL
GLUCOSE [3]: 174 mg/dL
PHOSPHORUS [3]: 13.7 mg/dL
POTASSIUM [3]: 6.85 MEQ/L
SODIUM [3]: 152 MEQ/L
TOTAL PROTEIN [3]: 6.2 G/DL
BASOPHIL [4]: 0%
EOSINOPHIL [4]: 0.33%
ERYTHROCYTE COUNT [4]: 6.32 x10E6/uL
HEMATOCRIT [4]: 40.2%
HEMOGLOBIN [4]: 15.2 G/DL
LEUKOCYTE COUNT [4]: 12.73 x10E3/uL
LYMPHOCYTE [4]: 86.33%
MEAN CORPUSCULAR HEMOGLOBIN [4]: 24.07 pg
MEAN CORPUSCULAR HEMOGLOBIN CONCENTRATION [4]: 37.83 G/DL
MEAN CORPUSCULAR VOLUME [4]: 63.7 fL
MONOCYTE [4]: 2.33%
NEUTROPHIL [4]: 11%
PLATELET COUNT [4]: 1319.67 x10E3/uL
ALANINE AMINOTRANSFERASE [4]: 36.67 u/L
ALBUMIN [4]: 3.43 G/DL
ALKALINE PHOSPHATASE [4]: 437.33 u/L
ASPARTATE AMINOTRANSFERASE [4]: 64 u/L
BLOOD UREA NITROGEN [4]: 13.67 mg/dL
CHLORIDE [4]: 103 MEQ/L
CHOLESTEROL [4]: 65 mg/dL
CREATINE PHOSPHOKINASE [4]: 156.67 u/L
CREATININE [4]: 0.53 mg/dL
GLUCOSE [4]: 162.67 mg/dL
PHOSPHORUS [4]: 11.97 mg/dL
POTASSIUM [4]: 7.07 MEQ/L
SODIUM [4]: 148.33 MEQ/L
TOTAL PROTEIN [4]: 5.63 G/DL
BASOPHIL [5]: 0%
EOSINOPHIL [5]: 0.67%
ERYTHROCYTE COUNT [5]: 6.72 x10E6/uL
HEMATOCRIT [5]: 42.6%
HEMOGLOBIN [5]: 15.63 G/DL
LEUKOCYTE COUNT [5]: 11.5 x10E3/uL
LYMPHOCYTE [5]: 77.67%
MEAN CORPUSCULAR HEMOGLOBIN [5]: 23.3 pg
MEAN CORPUSCULAR HEMOGLOBIN CONCENTRATION [5]: 36.73 G/DL
MEAN CORPUSCULAR VOLUME [5]: 63.4 fL
MONOCYTE [5]: 1.67%
NEUTROPHIL [5]: 20%
PLATELET COUNT [5]: 1318.33 x10E3/uL
ALANINE AMINOTRANSFERASE [5]: 31.33 u/L
ALBUMIN [5]: 3.67 G/DL
ALKALINE PHOSPHATASE [5]: 301.33 u/L
ASPARTATE AMINOTRANSFERASE [5]: 56.33 u/L
BLOOD UREA NITROGEN [5]: 18.33 mg/dL
CHLORIDE [5]: 104.67 MEQ/L
CHOLESTEROL [5]: 84.67 mg/dL
CREATINE PHOSPHOKINASE [5]: 181.33 u/L
CREATININE [5]: 0.47 mg/dL
GLUCOSE [5]: 193.67 mg/dL
PHOSPHORUS [5]: 14.03 mg/dL
POTASSIUM [5]: 6.9 MEQ/L
SODIUM [5]: 150.67 MEQ/L
TOTAL PROTEIN [5]: 6.03 G/DL
BASOPHIL [6]: 0%
EOSINOPHIL [6]: 0%
ERYTHROCYTE COUNT [6]: 6.6 x10E6/uL
HEMATOCRIT [6]: 41.4%
HEMOGLOBIN [6]: 15.03 G/DL
LEUKOCYTE COUNT [6]: 16.7 x10E3/uL
LYMPHOCYTE [6]: 84.33%
MEAN CORPUSCULAR HEMOGLOBIN [6]: 22.83 pg
MEAN CORPUSCULAR HEMOGLOBIN CONCENTRATION [6]: 36.4 G/DL
MEAN CORPUSCULAR VOLUME [6]: 62.8 fL
MONOCYTE [6]: 0.67%
NEUTROPHIL [6]: 15%
PLATELET COUNT [6]: 1151 x10E3/uL
ALANINE AMINOTRANSFERASE [6]: 37.33 u/L
ALBUMIN [6]: 3.4 G/DL
ALKALINE PHOSPHATASE [6]: 386 u/L
ASPARTATE AMINOTRANSFERASE [6]: 55.33 u/L
BLOOD UREA NITROGEN [6]: 15.33 mg/dL
CHLORIDE [6]: 101.67 MEQ/L
CHOLESTEROL [6]: 67 mg/dL
CREATINE PHOSPHOKINASE [6]: 159.67 u/L
CREATININE [6]: 0.5 mg/dL
GLUCOSE [6]: 174.67 mg/dL
PHOSPHORUS [6]: 14.17 mg/dL
POTASSIUM [6]: 7.1 MEQ/L
SODIUM [6]: 149 MEQ/L
TOTAL PROTEIN [6]: 5.7 G/DL

Source: ChEMBL document CHEMBL3885881, “DrugMatrix”
